Measurements reported in patent publication US11207289B2, “Use of benzofuran lignans to induce IL-25 expression and suppress mammary tumor metastasis” (ACADEMIA SINICA, priority 2016, dated 2021).

What was measured:
[1] = MTT assay, cytotoxic effect on WI38; format: cell-based; settings: human, WI38 cells (human fibroblast cell line)
Protocol: (§1) M10, WI38, SKBR3, and MDA-MB-231 cells (1×10^5 cells/ml) dispensed in 96-well plates were incubated with vehicle or test compounds (Q2-3) for 24 h or 72 h in corresponding basal medium in a 5% CO2 incubator. To evaluate the effect of secreted IL-25 from Q2-3-treated fibroblasts on growth activity of mammary tumor cells, 4T1 and MDA-MB-231 cells (1×10^4 cells/ml) dispensed in 96-well plates were incubated with control medium or different fibroblast conditioned media (200 μl/ml) which was changed daily for 5 days. All treatments were performed in triplicate cell cultures. The growth activity of cells was assayed using a 3-(4, 5-dimethythiazol-2-yl)-2, 5-diphenyl tetrazolium bromide (MTT; Sigma-Aldrich) colorimetric method. The absorbance at 570 nm (A570) was measured using a multiwall scanning spectrophotometer.
(§2) FIG. 1 is a schematic depiction of cytotoxic effects of dihydrobenzofuran lignan (Q2-3) on breast tumor cells. (a): Scheme for synthesis of Q2-3 (methyl (E)-3-[2-(3,4-dihydroxyphenyl)-7-hydroxy-3-methoxycarbonyl-2,3-dihydro-1-benzofuran-5yl]prop-2-enoate) from two caffeic acid methyl ester molecules. […] The beginning cytotoxic dosage of Q2-3 was detected at 0.3 μM, with >50% kill rate on SKBR3 and MDA-MB-231 cells. […]

[2] = system: myeloid derived suppressor cells (MDSCs); experiment: Flow cytometry of MDSCs in lung tissue, 4T1 tumor resection model; format: in vivo, mice; settings: 10 μg/kg, 3 weeks post tumor resection
Protocol: BALB/c mice were subcutaneously injected with 4T1-Luc2 cells (5×10^5/100 μl PBS/mouse) into the fourth mammary fat pad under isoflurane anesthesia. Tumor growth was monitored by measuring the tumor volume according to the formula: volume=length×(width)^2/2. After tumors were established (180-200 mm^3) on day 14, test mice were divided into different groups (8 mice/group) and subjected to different treatments. At 15 days post tumor cell implantation, primary 4T1 tumors in situ were surgically removed by a tumor resection process. For drug treatment, mice were administered with different agents, including vehicle-control (PBS), mouse IL-25 protein (10 μg/kg, ProSpec, Vineland, N.J.), Q2-3 (2, 20 or 100 μg/kg) or docetaxel (2 mg/kg; Sigma-Aldrich), by intravenous injection for 3 weeks (3 injections/week) post tumor resection. […] Bioluminescence signals from the 4T1-luc2 tumor cells in test mice were analyzed using a non-invasive IVIS imaging system (Calipers, Hopkinton, Mass.) after intraperitoneal injection of 150 mg/kg D-luciferin (NanoLight technology, Pinetop, Ariz.). […]
Suppressive effects of Q2-3 on in vivo expansion of MDSC populations were also evaluated for both the monocytic (CD11b^+Ly6C^+) and granulocytic (CD11b^+Ly6G^+) subsets of MDSCs. The populations of these two MDSC cell types in lung tissues of test mice were analyzed and compared at 3 weeks post tumor resection.

[3] = MTT assay, cytotoxic effect on M10; format: cell-based; settings: human, M10 cells (normal human mammary epithelial cell line)
Protocol: as §1, §2

SMILES: COC(=O)/C=C/c1cc(O)c2c(c1)C(C(=O)OC)C(c1ccc(O)c(O)c1)O2 (stereo not shown) [Q2-3, methyl(E)-3-[2-(3,4-dihydroxyphenyl)-7-hydroxy-3-methoxycarbonyl-2,3-dihydro-1-benzofuran-5yl]-prop-2-enoate]
- viability at 2 µM [1]: ≥ 80%
- monocytic CD11b+Ly6C+ MDSC population in lung tissue ([2]; PBS control 0.9%): 0.4%
- granulocytic CD11b+Ly6G+ MDSC population in lung tissue ([2]; PBS control 42.9%): 12.5%
- viability at 2 µM [3]: ≥ 80%
